# Laboratory results: patent US20050019746A1, “Apoptosis-related kinase/GPCRs” (EiRx Therapeutics Limited, priority 2003, published 2005)
# Assays:
# PC3 cells = experiment: 10-14 day Clonagenicity Assay (MTT), PC3; format: cell-based, human; conditions: for percentage survival relative to the missense, n = 1: independent experiment n = 1, dilution point of maximum toxicity
# Source text: (§1) The Clonagenicity Assay represents a Cell Viability Screen that allows assessment of a cytotoxic insult at a variety of seed densities of cancer cell lines over an extended period of logarithmic growth, such that the definitive effect of the test substance can be accurately quantified. In this instance, the ‘cytotoxic insult’ to be tested involves the transfection of siRNA Oligomers to knockdown the expression of novel target Kinases and GPCRs as outlined previously. Cell number is quantified 10-14 days post siRNA transfection by MTT conversion as described in detail in Example 6.
# (§2) The Clonagenicity Assay is optimised for each cell line examined with respect to seed number. The seed number varies for each cell line and accounts for the differences in cell size, growth rate and sensitivity to transfection-induced toxicity for each cell line pursued. Cells lines given as models for this example include HCT15, MCF7, A549, SKOV3, DU145, U251, PC3, A498 and HeLa. The siRNA oligo to Survivin serves as a positive control for toxicity in this assay and the missense control oligomer acts as a negative control as described in detail in Examples 5 and 6. The c-Raf, BCL2 and PI3K siRNA oligomers serve as additional controls as previously mentioned. The Clonagenicity assay is performed as outlined below.
# (§3) Cells are seeded into a 96-well plate as described below and allowed to adhere overnight at 37° C. in a humidified atmosphere containing 5% CO2 in air. Wells are seeded with an appropriate cell number (cell line dependent) in Column 1 of the 96 well plates and this cell suspension is diluted 1 in 2 across the 96 well plates from Column 1 through to 6 (represented on the x-axis in results). Cells are next transfected with siRNA Oligomers, at a concentration of 2 μg/ml, against the genes of interest. Transfections continue for 4 hrs after which the transfection solution is removed and cells are refed with fresh medium and allow to incubate overnight. An additional media change@24 hrs post transfection is made to minimise toxicity of the transfection reagent. Cells are subsequently incubated for a 10-14 Day period post transfection at a 37° C. incubation as described above. Medium is renewed weekly following which MTT quantification is performed as described in Example 5.
# (§4) To be considered cytotoxic, the siRNA Oligo against the gene target must induce a decreased viability in a cell line across at least 2 seed densities in the clonagenicity assay, such that a significant difference between the target gene and MS is observed i.e. no crossing of the Standard Error bars is detected. The average percentage viability, relative to missense, is recorded for the dilution point at which Maximum Toxicity is induced is recorded in Table 13.
# (§5) Table 13 Clonagenicity Assay—This table gives the average percentage survival of the indicated cell lines relative to the missense in a clonagenicity assay, over 3 independent experiments. As an internal reference, the known survival gene ‘Survivin’, BCL2, c-Raf and PI3KR1 was also targeted by siRNA. When no Cytotoxic response is detected ‘-’ is recorded.
# U251 cells = experiment: 10-14 day Clonagenicity Assay (MTT), U251; format: cell-based, human; conditions: U251, clonagenicity assay, dilution point of maximum toxicity
# Source text: as §1, §2, §3
# Note seed density decreases from 3.5 to 0.1×10^3 cells on the x-axis and the y-axis represents cell number as quantified by MTT conversion, 10-14 days post transfection. This decrease is substantially greater that with the apoptosis gene, Survivin. […] Note seed density decreases from 3.5 to 0.1×10^3 cells on the x-axis and the y-axis represents cell number as quantified by MTT conversion, 10-14 days post transfection.
# as §4, §5
# SKOV3 cells = experiment: 10-14 day Clonagenicity Assay (MTT), SKOV3; format: cell-based, human; conditions: independent experiment n = 1, dilution point of maximum toxicity
# Source text: as §1, §2, §3, §4, §5
# HCT15 cells [1] = experiment: 10-14 day Clonagenicity Assay (MTT), HCT15; format: cell-based, human; conditions: for percentage survival relative to the missense, n = 1: independent experiment n = 1, dilution point of maximum toxicity
# Source text: as §1, §2, §3, §4, §5
# [2] = tested on: target gene mRNA in PC3 cells; experiment: Validation of siRNA efficacy by QPCR in PC3 cells; format: cell-based, human; conditions: PC3, siRNA 50 nM, RNAiFect, 24 hours post transfection, relative to non-silencing control, normalised to GAPDH
# Protocol: To evaluate the ability of each siRNA oligonucleotides to knock down its intended target, each siRNA was validated in a cell line known to express the target, in this example the genes were tested PC3 cells, which were shown by expression profiling to express all target genes. The efficacy of knockdown was measured using QPCR. Cells are plated at a density of 2×10^4 cells in each well of a 24 well plate and incubated at 37° C. overnight. The siRNA is transfected into cells using RNAiFect reagent (Qiagen) with siRNA at a concentration of 50 nM according to manufacturer's instructions. Additional wells of cells are transfected with 50 nM of a non-silencing control (Qiagen). […] Transfected cells are harvested at 24 hours post transfection, and RNA extracted using RNeasy Miniprep columns with an on-column DNase digestion step. The RNA is eluted in 30 μl of RNase-free H2O. cDNA is synthesised from 12 μl of this RNA using an anchored oligo(dT) primer (Sigma) and Transcriptor reverse transcriptase (Roche) at 55° C. in a total volume of 20 μl following the manufacturer's instructions. The resulting cDNA is diluted to a total of 200 μl with H2O and 10 μl used in each QPCR reaction. The levels of transcript are compared by QPCR, relative to the non-silencing control. QPCR is performed using primers, conditions and methodology identical to those used for expression profiling, see Table 8. All reactions were performed in duplicate and the average Ct values calculated. For each sample, the Ct of each target gene in normalised to GAPDH. Relative expression between cells transfected with target or non-silencing siRNA, normalised to GAPDH expression, is determined by the comparative Ct method.
# A498 cells = experiment: 10-14 day Clonagenicity Assay (MTT), A498; format: cell-based, human; conditions: independent experiment n = 3, dilution point of maximum toxicity
# Source text: as §1, §2, §3, §4, §5
# A549 cells [3] = experiment: 10-14 day Clonagenicity Assay (MTT), A549; format: cell-based, human; conditions: independent experiment n = 3, dilution point of maximum toxicity
# Source text: as §1, §2, §3, §4, §5
# DU145 cells = experiment: 10-14 day Clonagenicity Assay (MTT), DU145; format: cell-based, human; conditions: independent experiment n = 2, dilution point of maximum toxicity
# Source text: as §1, §2, §3, §4, §5
# HCT15 cells [4] = experiment: Anchorage Independence/Soft Agar Assay, HCT15; format: cell-based, human; set-up: PERCENTAGE SURVIVAL RELATIVE TO MS, HCT15, n = 2: tested at 2 µg; PERCENTAGE SURVIVAL RELATIVE TO MS, HCT15, n = 1: tested at 2 µg siRNA; conditions: soft agar
# Protocol: (§6) The Anchorage Independence/Soft Agar Assay allows assessment of the influence of modulation of gene expression on clonal tumouroid formation by observing and quantifying tumouroid morphology and colony number over an extended period of logarithmic growth thereby ascertaining any cell death is induced.
# (§7) Cells are seeded into a 6-well plate and allowed to adhere overnight at 37° C. in a humidified atmosphere containing 5% CO2 in air. Cells are next transfected with siRNA Oligomers, at a concentration of 2 μg, against the genes of interest. Transfections continued for 4 hrs after which the transfection solution is removed and cells are refed with fresh medium and allowed incubate overnight. Transfected cells are next harvested for seeding into soft agar assay as described below. Cells are seeded at 5×10^4 cells per well of a 6 well plate and incubated over a 12/14-Day period whilst proliferating in a 0.05% Agar/Medium cell suspension at 37° C. in a humidified atmosphere containing 5% CO2 in air. Colonies formed are subsequently stained with Crystal Violet, their morphology is assessed and colonies formed are enumerated at a 4× magnification.
# (§8) The cytotoxic effect of each gene is determined by a reduction in colony number compared to our MS control, but any influence on the morphology of the colony is also noted.
# (§9) Examples of genes with a cytotoxic effect on knockdown as detected by the soft agar assay are outlined in Table 14. Table 14 gives the percentage survival of the indicated cell lines post transfection with siRNA oligomers to target genes relative to that of the missense in an anchorage independent assay. As an internal reference, the known survival gene Survivin was also targeted by siRNA. This table illustrates the magnitude of cytotoxicity induced by the knockdown of each target gene compared to the MS control i.e. the number of colonies formed are stained with Crystal violet and enumerated visually as discussed.
# cancer cell lines = experiment: Anchorage Independence/Soft Agar Assay, summary over the cell lines; format: cell-based, human; conditions: 14-day anchorage independent assay, over the cell lines examined
# Protocol: as §6, §7, §8
# As an internal reference, the known survival gene ‘Survivin’ was also targeted by siRNA.
# MCF7 cells = experiment: Anchorage Independence/Soft Agar Assay, MCF7; format: cell-based, human; set-up: PERCENTAGE SURVIVAL RELATIVE TO MS, MCF7, n = 2: tested at 2 µg; conditions: soft agar
# Protocol: as §6, §7, §8, §9
# A549 cells [5] = experiment: Anchorage Independence/Soft Agar Assay, A549; format: cell-based, human; set-up: PERCENTAGE SURVIVAL RELATIVE TO MS, A549, n = 2: tested at 2 µg; conditions: soft agar
# Protocol: as §6, §7, §8, §9
# [6] = tested on: human primary neutrophils; experiment: Neutrophil apoptosis by sub G1 analysis (DNA fragmentation); format: cell-based; conditions: inhibitor 20 μM with GM-CSF 50 units/ml, 18 h, relative to GM-CSF alone
# Protocol: Neutrophils are isolated from the blood as described in WO 02/04657 and resuspended at a concentration of 2×10^6/ml. Five hundred microlitres are pipetted into wells of a 24 well plate and incubated in the presence or absence of survival factors.
# After this incubation, the neutrophils are carefully resuspended by gentle agitation and the total contents of the well are placed into an eppendorf and centrifuged@2800 rpm for 2 min@RT in a minifuge. The cell pellet is carefully resuspended in 300 μl of ice cold hypotonic fluorochrome solution (50 μg/ml Propidium Iodide, 0.1% Sodium Citrate and 0.1% Triton X-100) and placed in a fridge for 24 h@4° C.
# Prepared samples are analysed with a FacsCalibre flow cytometer (Becton Dickinson) using double discrimination to ensure single cell suspension with Log Forward and Side Scatter Parameter acquisition.
# Neutrophils are seeded at 2×10^6/ml in a 24 well plate in full culture medium (1 ml/well). A PI3K inhibitor (Ly294002) is added to the neutrophils to a final concentration of 20 μM prior to the addition of GM-CSF (50 units/ml). Control wells received either no GM-CSF or F GM-CSF (50 units/ml) in the absence of inhibitor. Neutrophils are cultured for 18 h at 37° C. prior to harvest and prepared for sub G1 analysis, as previously described.
# Neutrophils are seeded at 2×10^6/ml in a 24 well plate in full culture medium (1 ml/well). An AKT inhibitor ([1L-6-Hydroxymethyl-chiro-inositol 2-O-methyl-3-O-octadecylcarbonate] (Calbiochem)) is added to the neutrophils to a final concentration of 20 μM and incubated for 2 h prior to the addition of GM-CSF (50 units/ml). Control wells receive either no GM-CSF or GM-CSF (50 units/ml) in the absence of inhibitor. Neutrophils are cultured for 18 h at 37° C. prior to harvest and prepared for sub G1 analysis, as previously described.
# [7] = independent experiment n = 2, dilution point of maximum toxicity
compound,measurement,setting,value
"siRNA UKH: siRNA duplex, sense AGCGCAAGACACUCUGUGGtt, antisense CCACAGAGUGUCUUGCGCUtt; same in Tables 9 and 11 (sense AGCGCAAGACACUCUGUGGTT; antisense CCACAGAGUGUCUUGCGCUTT; chemistry not given here)","percentage survival relative to the missense, n = 1",PC3 cells,60.6%
same,"percentage survival relative to the missense, n = 3","PC3 cells; independent experiment n = 3, dilution point of maximum toxicity",54.4%
same,"percentage survival relative to the missense, n = 1",U251 cells; independent experiment n = 1,47.7%
same,"percentage survival relative to the missense, n = 3",U251 cells; independent experiment n = 3,48.1%
same,"percentage survival relative to the missense, n = 1",SKOV3 cells,80.3%
same,"percentage survival relative to the missense, n = 1",HCT15 cells [1],78.1%
same,"percentage survival relative to the missense, n = 2",HCT15 cells [1]; [7],71.7%
same,Decrease in expression of target gene,[2],75.3%
"siRNA c-Raf: control siRNA, sense UAGUUCAGCAGUUUGGCUAtt, antisense UAGCCAAACUGCUGAACUAtt (sense UAGUUCAGCAGUUUGGCUATT; antisense UAGCCAAACUGCUGAACUATT; chemistry not given here) [reference compound]","percentage survival relative to the missense, n = 3",A498 cells,14.8%
same,"percentage survival relative to the missense, n = 3",A549 cells [3],59.1%
same,"percentage survival relative to the missense, n = 2",DU145 cells,54.9%
same,"PERCENTAGE SURVIVAL RELATIVE TO MS, HCT15, n = 1",HCT15 cells [4]; experiment n = 1,70%
same,"PERCENTAGE SURVIVAL RELATIVE TO MS, HCT15, n = 2",HCT15 cells [4]; experiment n = 2,65.1%
same,cell death / apoptosis in the soft agar assay,cancer cell lines,only induced cell death in the A549 and HCT15 cell lines
same,"percentage survival relative to the missense, n = 1",SKOV3 cells,42.5%
same,"PERCENTAGE SURVIVAL RELATIVE TO MS, MCF7, n = 1",MCF7 cells; experiment n = 1,89.7%
same,"PERCENTAGE SURVIVAL RELATIVE TO MS, MCF7, n = 2",MCF7 cells; experiment n = 2,98.2%
same,"percentage survival relative to the missense, n = 1",HCT15 cells [1],83.5%
same,"PERCENTAGE SURVIVAL RELATIVE TO MS, A549, n = 1",A549 cells [5]; experiment n = 1,57%
same,"PERCENTAGE SURVIVAL RELATIVE TO MS, A549, n = 2",A549 cells [5]; experiment n = 2,24.2%
"siRNA ITPKC: siRNA duplex, sense GUCCUGGGCUGAUAACCUCtt, antisense GAGGUUAUCAGCCCAGGACtt; same in Tables 9 and 11 (sense GUCCUGGGCUGAUAACCUCTT; antisense GAGGUUAUCAGCCCAGGACTT; chemistry not given here)","percentage survival relative to the missense, n = 1",PC3 cells,45.1%
same,"percentage survival relative to the missense, n = 2",PC3 cells; [7],51.3%
same,Decrease in expression of target gene,[2],83.9%
CCCCCCCCCCCCCCCCCCOC(=O)OC1C(O)C(O)C(CO)C(O)C1OC (stereo not shown) [1L-6-Hydroxymethyl-chiro-inositol 2-O-methyl-3-O-octadecylcarbonate],apoptosis / GM-CSF mediated survival by sub G1 analysis,[6],survival is abrogated
same,apoptosis / GM-CSF mediated survival by sub G1 analysis,[6]; listed as IL-6-Hydroxymethyl-chiro-inositol 2-(R)-2-O-methyl-3-O-octadecylcarbonate,increases the amount of apoptosis
